Laboratory results from patent US20100041700A1, “Substituted 1-(Azolin-2-yl)-Amino-1,2-Heterocyclyl-Ethane Compounds For Combating Pests” (BASF SE, priority 2006, published 2010).

Legend:
[1] = system: Cowpea Aphid (Aphis craccivora); test: Cowpea aphid (Aphis craccivora) spray test on potted cowpea plants; type: in vivo; settings: in comparison with untreated controls, population reduction recorded after 24, 72 and 120 hours, read-out: mortality against cowpea aphid
Experimental: B.1. Cowpea Aphid (Aphis craccivora)
The active compounds were formulated in 50:50 acetone:water. Potted cowpea plants colonized with 100-150 aphids of various stages were sprayed after the pest population has been recorded. Population reduction was recorded after 24, 72, and 120 hours.

[2] = system: Green Peach Aphid (Myzus persicae); test: Green peach aphid (Myzus persicae) leaf dip test on pepper plants; type: in vivo; settings: foliar, 120 h, in comparison with untreated controls, determined after 5 days, read-out: mortality against green-peach aphid
Experimental: B.2. Green Peach Aphid (Myzus persicae)
Pepper plants in the 2nd leaf-pair stage (variety ‘California Wonder’) were infested with approximately 40 laboratory-reared aphids by placing infested leaf sections on top of the test plants. The leaf sections were removed after 24 hours. The leaves of the intact plants were dipped into gradient solutions of the test compound. Aphid mortality on the treated plants, relative to mortality on check plants, was determined after 5 days.

Row | SMILES | mortality at 300 ppm [1] [%] | mortality at 300 ppm [2] [%]
1 | Cc1ccsc1C(Cc1ccncc1)NC1=NCCS1 (stereo not drawn) [C.I.9] | > 80 | –
2 | Brc1ccsc1C(Cc1ccncc1)NC1=NCCS1 (stereo not drawn) [C.I.10] | – | > 80
3 | c1ccc(CC(NC2=NCCS2)c2cccs2)nc1 (stereo not drawn) [C.I.12] | > 80 | –
